# From patent US20240132461A1, “FLAVONE DEAZA SPERMIDINE ANALOGUES AND THEIR USE TREATING CANCER” (FLORATEK PHARMA S.A., priority 2021, published 2024)
# Legend:
# U-87MG = assay: Cell viability assay, brain carcinoma cell line U-87MG; format: cell-based; details: Homo sapiens; U-87MG brain carcinoma cell line, 72 h, absolute IC50
# Procedure: (§1) Antitumor activity of the compounds and doxorubicin as a positive control was assessed by using the CellTiter-Blue Cell Viability Assay (Promega, #G8082) or CellTiter-Glow® Luminescent Cell Viability assay (Promega # G7572) according to the manufacturer's instructions. The compounds were tested at 5 or 6 concentrations in half-log increments (highest concentration 30 μM-100 μM) in duplicate or triplicate well conditions.
# (§2) Tumor cells were grown at 37° C. in a humidified atmosphere with 5% CO2 in RPMI 1640 or DMEM medium, supplemented with 10% (v/v) fetal calf serum and 50 μg/ml gentamicin for up to 20 passages, and were passaged once or twice weekly. Cells were harvested using TrypLE or PBS buffer containing 1 mM EDTA, and the percentage of viable cells is determined using a CASY Model TT cell counter (OMNI Life Science). Cells were harvested from exponential phase cultures, counted and plated in 96 well flat-bottom microtiter plates at a cell density depending on the cell line's growth rate (4,000-20,000 cells/well depending on the cell line's growth rate, up to 60,000 for hematological cancer cell lines) in RPMI 1640 or DMEM medium supplemented with 10% (v/v) fetal calf serum and 50 μg/ml gentamicin (140 μl/well). Cultures were incubated at 37° C. and 5% CO2 in a humidified atmosphere. After 24 h, 10 μl of test compounds or control medium are added, and left on the cells for another 72 h. Compounds were serially diluted in DMSO, transferred in cell culture medium, and added to the assay plates. The DMSO concentration was kept constant at <0.3% v/v across the assay plate. Viability of cells was quantified by the CellTiter-Blue® cell viability assay (Promega G8081) or CellTiter-Glow® Luminescent Cell Viability assay (Promega # G7572). Fluorescence (FU) was measured by using the EnSpire® multimode plate reader (Perkin Elmer) (excitation λ=570 nm, emission λ=600 nm) or luminescent detection of ATP in viable cells was used as parameter for proliferation. Luminescence was measured with the microplate luminometer (Promega or Perkin Elmer).
# (§3) Sigmoidal concentration-response curves were fitted to the data points (test-versus-control, T/C values) obtained for each tumor model using 4 parameter non-linear curve fit (Charles River DRS Datawarehouse Software) or with GraphPad prism 5.02 software. IC50 values are reported as absolute IC50 values, being the concentration of test compound at the intersection of the concentration-response curves with T/C=50%
# BR-05-0014E = assay: PDX cytotoxicity assay, breast PDX BR-05-0014E; format: cell-based
# Procedure: (§4) PDX-derived cell cultures were obtained from tumors explanted from mice and isolated by mechanical and enzymatic dissociation. […] Cells were harvested and seeded in 96-wells plates at a density of 1.25 to 5×10^3 cells/well for cytotoxicity assays. Cells were incubated 48 h at 37° C. prior to addition of test molecules and vehicle (DMSO, 0.1%) at desired final concentrations. Cell viability was assessed before drugs' addition (T0) and 5 days after test molecules addition by measuring ATP cell content using CellTiter-Glo® Luminescent Cell Viability Assay (Promega) according to the manufacturer's instructions. Luciferase activity was measured on a luminometer (PerkinElmer® EnVision™). Each concentration of compounds was tested in triplicate.
# (§5) Viability was calculated as a percentage of ATP value compared to vehicle treated controls.
# (§6) For PDX primary cell cultures, the tumour tissue was washed with PBS containing antibiotic-antimycotic and non-tumour tissue and necrotic tumour tissues were separated. The tumour tissue was transferred to a new dish and cut into 1˜2 mm^3 fragments, resuspended in RPMI-1640 medium and centrifuged at 1,200 rpm for 6 min at room temperature. The pelleted material was resuspended with 15 mL of Tumour Cell Digestion Solution and incubated at 37° C. for 1 hour with agitation. […]
# HBCx-3 = assay: PDX cytotoxicity assay, breast PDX HBCx-3; format: cell-based
# Procedure: as §4, §5, §6
# K562 = assay: Cell viability assay, leukaemia cell line K562; format: cell-based; details: Homo sapiens
# Procedure: as §1
# (§7) Tumor cells were grown at 37° C. in a humidified atmosphere with 5% CO2 in RPMI 1640 or DMEM medium, supplemented with 10% (v/v) fetal calf serum and 50 μg/ml gentamicin for up to 20 passages, and were passaged once or twice weekly. Cells were harvested using TrypLE or PBS buffer containing 1 mM EDTA, and the percentage of viable cells is determined using a CASY Model TT cell counter (OMNI Life Science). Cells were harvested from exponential phase cultures, counted and plated in 96 well flat-bottom microtiter plates at a cell density depending on the cell line's growth rate (4,000-20,000 cells/well depending on the cell line's growth rate, up to 60,000 for hematological cancer cell lines) in RPMI 1640 or DMEM medium supplemented with 10% (v/v) fetal calf serum and 50 μg/ml gentamicin (140 μl/well). […] Viability of cells was quantified by the CellTiter-Blue® cell viability assay (Promega G8081) or CellTiter-Glow® Luminescent Cell Viability assay (Promega # G7572). […]
# NALM-6 = assay: Cell viability assay, leukaemia cell line NALM-6; format: cell-based; details: Homo sapiens; NALM-6 leukaemia cell line
# Procedure: as §1, §7
# NCI-H1299 = assay: Cell viability assay, non-small cell lung carcinoma cell line NCI-H1299; format: cell-based; details: Homo sapiens
# Procedure: as §1, §2, §3
# SC6 = assay: PDX cytotoxicity assay, small cell lung carcinoma PDX SC6; format: cell-based
# Procedure: as §4, §5, §6
# LU-01-0025 = assay: PDX cytotoxicity assay, lung carcinoma PDX LU-01-0025; format: cell-based
# Procedure: as §4, §5, §6
# NAWALMA = assay: Cell viability assay, lymphoma cell line NAWALMA; format: cell-based
# Procedure: as §1, §7
# DOHH-2 = assay: Cell viability assay, lymphoma cell line DOHH-2; format: cell-based; details: Homo sapiens; DOHH-2 lymphoma cell line
# Procedure: as §1, §7
# LY-24-0340 = assay: PDX cytotoxicity assay, lymphoma PDX LY-24-0340; format: cell-based
# Procedure: as §4, §5, §6
# HN-13-0020 = assay: PDX cytotoxicity assay, head and neck PDX HN-13-0020; format: cell-based
# Procedure: as §4, §5, §6
# ES-06-0122 = assay: PDX cytotoxicity assay, esophagus PDX ES-06-0122; format: cell-based
# Procedure: as §4, §5, §6
# PIM2 = target: T1, PIM2 (Homo sapiens, UniProt Q9P1W9); assay: KINOMEscan competition binding assay, PIM2
# T1 construct: purchased Eurofins (KINOMEscan assay service); host or cells: E. coli BL21-derived (T7 phage) or HEK-293
# T1 sequence (Q9P1W9 whole entry): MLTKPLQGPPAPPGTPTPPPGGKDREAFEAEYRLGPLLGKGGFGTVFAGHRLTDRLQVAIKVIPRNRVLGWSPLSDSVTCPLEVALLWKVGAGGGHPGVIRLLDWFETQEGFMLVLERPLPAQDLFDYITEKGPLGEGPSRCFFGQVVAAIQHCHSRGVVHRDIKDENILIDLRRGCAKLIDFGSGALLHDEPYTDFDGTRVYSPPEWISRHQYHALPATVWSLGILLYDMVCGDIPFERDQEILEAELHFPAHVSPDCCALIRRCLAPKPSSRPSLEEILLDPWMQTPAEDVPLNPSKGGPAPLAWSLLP
# Text: (§8) The Hill Slope was set to −1.
# PIM3 = target: T2, PIM3 (Homo sapiens, UniProt Q86V86); assay: KINOMEscan competition binding assay, PIM3
# T2 construct: purchased Eurofins (KINOMEscan assay service); host or cells: E. coli BL21-derived (T7 phage) or HEK-293
# Text: as §8
# SNARK = target: T3, SNARK (Homo sapiens, UniProt Q9H093); assay: KINOMEscan competition binding assay, SNARK
# T3 construct: purchased Eurofins (KINOMEscan assay service); host or cells: E. coli BL21-derived (T7 phage) or HEK-293
# T3 sequence (Q9H093 whole entry): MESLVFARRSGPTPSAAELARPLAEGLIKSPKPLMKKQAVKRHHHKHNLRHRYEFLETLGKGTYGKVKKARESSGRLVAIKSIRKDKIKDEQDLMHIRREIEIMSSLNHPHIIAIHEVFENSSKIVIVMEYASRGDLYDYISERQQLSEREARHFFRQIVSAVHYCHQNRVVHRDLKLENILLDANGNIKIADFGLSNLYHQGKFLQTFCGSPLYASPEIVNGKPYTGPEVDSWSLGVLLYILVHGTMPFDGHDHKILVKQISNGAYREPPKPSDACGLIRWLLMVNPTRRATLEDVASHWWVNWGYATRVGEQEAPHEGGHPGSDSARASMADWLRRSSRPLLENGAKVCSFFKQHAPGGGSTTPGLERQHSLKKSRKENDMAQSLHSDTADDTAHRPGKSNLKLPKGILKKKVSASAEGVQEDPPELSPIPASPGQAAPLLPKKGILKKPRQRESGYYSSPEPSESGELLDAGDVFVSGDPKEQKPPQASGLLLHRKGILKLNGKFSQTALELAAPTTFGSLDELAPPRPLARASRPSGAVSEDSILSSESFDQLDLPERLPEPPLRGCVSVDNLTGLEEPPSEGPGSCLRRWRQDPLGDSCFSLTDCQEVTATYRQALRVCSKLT
# Text: as §8
# [1] = test system: U87MG human glioblastoma cells; assay: In vivo tumour inhibition of xenograft human glioblastoma U87MG; details: 10 mg/kg/inj i.p. qod
structure (smiles),measurement,setting,value
COc1c(O)ccc2c(=O)cc(-c3ccc(CNCCCCNCCCN)cc3)oc12 [SND164],IC50,U-87MG,5.7 µM
same,IC50,BR-05-0014E,13.3 µM
same,IC50,HBCx-3,10 µM
same,IC50,K562,3.48 µM
same,IC50,NALM-6,4.45 µM
same,IC50,NCI-H1299,1.25 µM
same,IC50,SC6,3.64 µM
same,IC50,LU-01-0025,5 µM
same,IC50,NAWALMA,2.6 µM
same,IC50,DOHH-2,4.3 µM
same,IC50,LY-24-0340,< 0.16 µM
same,IC50,HN-13-0020,2.7 µM
same,IC50,ES-06-0122,5.7 µM
same,Kd,PIM2,0.63 µM
same,Kd,PIM3,0.43 µM
same,Kd,SNARK,0.9 µM
same,body weight loss,[1]; U87MG xenograft mice,no significant body weight loss
same,death during the study,[1]; U87MG xenograft mice,no death
same,tolerability of the treatment,[1]; U87MG xenograft mice,well tolerated
same,"Optimum T/C, day 26","[1]; glioblastoma U87MG CDX s.c. in nude mice, 10 injections, ***P < 0.001 vs vehicle",54***
